Values of other authors in patent EP0527762B1, “INHIBITION OF ALLOGRAFT AND […] REJECTION” (priority 1990, dated 1991).

System: rabbit kidney xenografts
Details: rabbit kidney into cats, discordant

C[C@H](CS)C(=O)N1CCC[C@H]1C(=O)O [captopril]
prevention of hyperacute rejection: not prevented

CCOC(=O)[C@H](CCc1ccccc1)N[C@@H](C)C(=O)N1CCC[C@H]1C(=O)O [enalapril]
prevention of hyperacute rejection: not prevented

CCCCC[C@H](O)/C=C/[C@@H]1[C@H]2C/C(=C/CCCC(=O)O)O[C@H]2C[C@H]1O [prostacyclin]
prevention of hyperacute rejection: not prevented

O=C(O)c1cc(=O)c2c(OCC(O)COc3cccc4oc(C(=O)O)cc(=O)c34)cccc2o1 [sodium chromoglycate]
prevention of hyperacute rejection: not prevented
